Results from US4481203A, “Composition containing 1-(n-hexylcarbamoyl)-5-fluorouracil and uracil” (priority 1977, dated 1984).
Where two headings read alike, the source gives them in different places.

Experiments:
[1] = in vivo; parameters: species or system male rats of Donryu strain; settings: rat, po, Concentration of 5-fluorouracil in blood
Excerpt: Ascites cells (5×10^6) of AH-130 are subcutaneously transplanted in the armpit portion of male rats of Donryu strain weighing about 200 g. Seven days thereafter, the rats with cancer cells weighing at least 2 g are used, five rats in each group.
Two, four and eight hours after the administration, the blood serum and cancer tissue homogenate are collected, each of which is acidified with hydrochloric acid and extracted with chloroform. The resulting aqueous layer is examined for antibiotic activity according to the thin-cup method (Media Circle, Vol. 92, p. 259, 1967) with use of Staphylococcus aureus 209P strain.

[2] = test system: AH-130; experiment: Anti-cancer effect (T/C) on subcutaneously transplanted AH-130, oral administration (Table 2); format: in vivo, male Donryu rats
Excerpt: (2) Determination of effects
(§1) Ascites cells (5×10^6) of AH-130, are subcutaneously transplanted in the armpit of male Donryu rats weighing about 200 g (ten rats in each group). […] Twenty-four hours after the transplantation and during the following seven consecutive days the suspension is orally given to the animal once every day at the dose listed in Table 2. On the 10th day after the transplantation, the tumor is removed from the body and weighed to calculate the average weight (T) of the tumors in the group to which the composition has been given and the corresponding weight (C) in the control group to determine the ratio T/C.

[3] = test system: sarcoma 180; experiment: Therapeutic effect on sarcoma 180 transplanted in mice (Table 5); format: in vivo, male mice of ICR strain; settings: oral, 14400 min
Description: (§2) (5) The anti-cancer compositions of this invention are tested in mice by the following methods to determine acute toxicity, therapeutic effect and theapeutic index.
Tissues of sarcoma 180, 2×10^6, are subcutaneously transplanted in the back of male mice of ICR strain (6 mice in each group). […] Twenty-four hours after the transplantation and during the following seven consecutive days the suspension is orally given to the animal once every day.

[4] = test system: AH-130; experiment: Effects of Preparations 1 to 8 on AH-130 (Table 4); format: in vivo, male Donryu rats
Excerpt: as §1
(4) Compositions formulated according to Preparations 1 to 8 given above are tested by the foregoing method for effects on AH-130.

[5] = in vivo; format: in vivo; settings: mouse, in vivo, po, mice
Description: as §2
(§3) Male mice of ICR strain weighing 22±1 g are used, 5 mice in each group. […] Over the following period of three weeks the mice are checked every day for poisoning, body weight and mortality. The LD50 is determined according to the up-and-down method 3 weeks after the administration.

[6] = test system: mice; experiment: in vivo; format: in vivo; settings: oral, 30240 min
Description: as §2, §3

[7] = background; cited from earlier work
[8] = test system: sarcoma 180; experiment: Therapeutic index (LD50/ED50) in mice (Table 5); format: in vivo, male mice of ICR strain; settings: oral
Excerpt: The LD50 and ED50 values obtained above are used to determine the therapeutic index (LD50 /ED50).

[9] = Rattus norvegicus, po, 240 h, read-out: Anti-cancer effect (T/C)
[10] = uracil (b)/(a) mol ratio 0, as amount of 5-fluorouracil (a)
[11] = uracil (b)/(a) mol ratio 2.5, as amount of 5-fluorouracil (a)
[12] = uracil (b)/(a) mol ratio 10, as amount of 5-fluorouracil (a)
[13] = Rattus norvegicus, po, 240 h; read-out: Anti-cancer effect (T/C)
[14] = oral, 5-fluorouracil (a) 0.5 m.mol/kg + uracil 0.1 m.mol/kg
[15] = oral, 5-fluorouracil (a) 0.5 m.mol/kg + uracil 0.2 m.mol/kg
[16] = oral, 5-fluorouracil (a) 0.5 m.mol/kg + uracil 0.5 m.mol/kg
[17] = oral, 5-fluorouracil (a) 0.5 m.mol/kg + uracil 1 m.mol/kg

SMILES | ED50 [3, 10] [mg/kg] | ED50 [3, 11] [mg/kg] | ED50 [3, 12] [mg/kg] | LD50 at 504 h [5, 12] [mg/kg] | response vs control in vivo at 500 µmol/kg [2, 13] [%] | Anti-cancer effect (T/C) [2, 14] | Anti-cancer effect (T/C) [2, 15] | Anti-cancer effect (T/C) [2, 16] | Anti-cancer effect (T/C) [2, 17] | Therapeutic index (LD50/ED50) ([8]; uracil (b)/(a) mol ratio 0) | Therapeutic index (LD50/ED50) ([8]; uracil (b)/(a) mol ratio 2.5) | Therapeutic index (LD50/ED50) ([8]; uracil (b)/(a) mol ratio 10) | LD50 at 504 h [5, 10] [mg/kg] | LD50 at 504 h [5, 11] [mg/kg] | other results
O=c1[nH]cc(F)c(=O)[nH]1 [Compound 1, 5-Fluorouracil] | 18.5 | 8.5 | 6.0 | 97 | – | – | – | – | – | – | – | – | – | – | concentration at 4 h [1]: 20 ng/mL; response vs control in vivo at 80 µmol/kg [2, 9]: 69%; Anti-cancer effect (T/C) ([2]; oral, 5-fluorouracil (a) 0.08 m.mol/kg + uracil 0.08 m.mol/kg): 0.59; Anti-cancer effect (T/C) ([2]; oral, 5-fluorouracil (a) 0.08 m.mol/kg + uracil 0.16 m.mol/kg): 0.32; Anti-cancer effect (control) (T/C) ([4]; I.v., Compd. 1 10 mg/kg, formulated as Preparation 6 but no uracil): 0.66; LD50 [6, 10]: 115 mg/kg; LD50 [6, 11]: 115 mg/kg; toxicity and side effects [7]: high toxicity and marked side effects
O=c1[nH]c(=O)n(C2CCCO2)cc1F (stereo not drawn) [Compound 2, 1-(2-Tetrahydrofuryl)-5-fluorouracil, reference compound] | 140 | 20 | 11 | – | 65 | 0.30 | 0.23 | 0.17 | 0.06 | – | – | – | – | – | Anti-cancer effect (T/C) ([2]; oral, 5-fluorouracil (a) 0.5 m.mol/kg + uracil 0.05 m.mol/kg): 0.49; Anti-cancer effect (control) (T/C) ([4]; I.v., Compd. 2 100 mg/kg, formulated as Preparation 7 but no uracil): 0.61; Anti-cancer effect (control) (T/C) ([4]; oral, Compd. 2 100 mg/kg, formulated as Preparation 1 but no uracil): 0.68; Anti-cancer effect (control) (T/C) ([4]; via anus, Compd. 2 100 mg/kg, formulated as Preparation 8 but no uracil): 0.51
O=c1c(F)cn(C2CCCO2)c(=O)n1C1CCCO1 (stereo not drawn) [Compound 3, 1,3-bis(2-Tetrahydrofuryl)-5-fluorouracil] | 118 | 63 | 27 | 1160 | 24 | – | 0.18 | 0.12 | 0.08 | 18.8 | 30.1 | 42.9 | 2220 | 1890 | Anti-cancer effect (control) (T/C) ([4]; oral, Compd. 3 120 mg/kg, formulated as Preparation 2 but no uracil): 0.25; Anti-cancer effect (control) (T/C) ([4]; oral, Compd. 3 120 mg/kg, formulated as Preparation 4 but no uracil): 0.25
CCCCCCNC(=O)n1cc(F)c(=O)[nH]c1=O [Compound 4, 1-(n-Hexylcarbamoyl)-5-fluorouracil] | 60 | 24 | 20 | 644 | – | – | 0.21 | 0.15 | 0.12 | 21.0 | 40.8 | 32.2 | 1260 | 980 | response vs control in vivo at 500 µmol/kg [2, 9]: 39%; Anti-cancer effect (control) (T/C) ([4]; oral, Compd. 4 50 mg/kg, formulated as Preparation 3 but no uracil): 0.45
CCOCn1cc(F)c(=O)[nH]c1=O [Compound 5, 1-Ethoxymethyl-5-fluorouracil] | – | 26 | 13 | 191 | 68 | – | 0.33 | 0.19 | 0.08 | – | – | – | 1000 | 446 | Anti-cancer effect (control) (T/C) ([4]; oral, Compd. 5 100 mg/kg, formulated as Preparation 5 but no uracil): 0.72
O=c1[nH]cc(F)c(=O)n1C1CCCO1 (stereo not drawn) [Compound 7, 3-(2-Tetrahydrofuryl)-5-fluorouracil] | 78 | 29 | 16 | 381 | 20 | 0.12 | – | 0.06 | – | 13.1 | 23.7 | 23.8 | 1020 | 687 | –
